Measurements: PubChem BioAssay AID1963981 (Molecular Pharmacology Branch, DTP, NCI, 2024)
Each block holds one compound with its values, some of them ahead of it.

Tested on: 354836-022-R-J1-PDC multicell spheroid viability
Test: Anticancer human tumor 354836-022-R-J1-PDC patient-derived head and neck squamous cell carcinoma cell line growth inhibition [PI3K]
Details: for viability, T/C: stronger effect = lower value
Method in brief: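 Stroma-containing spheroids: tumor line, pooled-donor HUVEC, hMSC. Treatments: targeted agents with PI3K inhibitors. Dosing: clinically relevant, half-log spacing, 10 microM ceiling without known Cmax. Read-out: cell viability.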

[1] = curve of first compound, second compound 0.0316 µM
[2] = curve of first compound, second compound 0.1 µM
[3] = curve of first compound, second compound 0.316 µM
[4] = curve of first compound, second compound 1 µM
[5] = curve of first compound, second compound 3.16 µM
[6] = curve of first compound, second compound 10 µM
[7] = second compound 0.0316 µM, first compound 0.0316 µM
[8] = second compound 0.0316 µM, first compound 0.1 µM
[9] = second compound 0.0316 µM, first compound 0.316 µM
[10] = second compound 0.0316 µM, first compound 1 µM
[11] = second compound 0.0316 µM, first compound 3.16 µM
[12] = second compound 0.0316 µM, first compound 10 µM
[13] = second compound 0.1 µM, first compound 0.0316 µM
[14] = second compound 0.1 µM, first compound 0.1 µM
[15] = second compound 0.1 µM, first compound 0.316 µM
[16] = second compound 0.1 µM, first compound 1 µM
[17] = second compound 0.1 µM, first compound 3.16 µM
[18] = second compound 0.1 µM, first compound 10 µM
[19] = second compound 0.316 µM, first compound 0.0316 µM
[20] = second compound 0.316 µM, first compound 0.1 µM
[21] = second compound 0.316 µM, first compound 0.316 µM
[22] = second compound 0.316 µM, first compound 1 µM
[23] = second compound 0.316 µM, first compound 3.16 µM
[24] = second compound 0.316 µM, first compound 10 µM
[25] = second compound 1 µM, first compound 0.0316 µM
[26] = second compound 1 µM, first compound 0.1 µM
[27] = second compound 1 µM, first compound 0.316 µM
[28] = second compound 1 µM, first compound 1 µM
[29] = second compound 1 µM, first compound 3.16 µM
[30] = second compound 1 µM, first compound 10 µM
[31] = second compound 3.16 µM, first compound 0.0316 µM
[32] = second compound 3.16 µM, first compound 0.1 µM
[33] = second compound 3.16 µM, first compound 0.316 µM
[34] = second compound 3.16 µM, first compound 1 µM
[35] = second compound 3.16 µM, first compound 3.16 µM
[36] = second compound 3.16 µM, first compound 10 µM
[37] = second compound 10 µM, first compound 0.0316 µM
[38] = second compound 10 µM, first compound 0.1 µM
[39] = second compound 10 µM, first compound 0.316 µM
[40] = second compound 10 µM, first compound 1 µM
[41] = second compound 10 µM, first compound 3.16 µM
[42] = second compound 10 µM, first compound 10 µM
[43] = curve of first compound, second compound 0.00316 µM
[44] = curve of first compound, second compound 0.01 µM
[45] = second compound 0.00316 µM, first compound 0.0316 µM
[46] = second compound 0.00316 µM, first compound 0.1 µM
[47] = second compound 0.00316 µM, first compound 0.316 µM
[48] = second compound 0.00316 µM, first compound 1 µM
[49] = second compound 0.00316 µM, first compound 3.16 µM
[50] = second compound 0.00316 µM, first compound 10 µM
[51] = second compound 0.01 µM, first compound 0.0316 µM
[52] = second compound 0.01 µM, first compound 0.1 µM
[53] = second compound 0.01 µM, first compound 0.316 µM
[54] = second compound 0.01 µM, first compound 1 µM
[55] = second compound 0.01 µM, first compound 3.16 µM
[56] = second compound 0.01 µM, first compound 10 µM
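Also: spheroids exposed to agents for seven days before the viability read.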

Compound: C#Cc1c(F)ccc2cc(O)cc(-c3ncc4c(N5CC6CCC(C5)N6)nc(OCC56CCCN5CC(F)C6)nc4c3F)c12 (stereo not drawn)
- viability, T/C (compound 0.0316 µM): 101% [middle of 4 runs]
- viability, T/C (compound 0.1 µM): 101% [middle of 4 runs]
- viability, T/C (compound 1 µM): 87.7% [middle of 4 runs]
- viability, T/C (compound 3.16 µM): 95.4% [middle of 4 runs]
- viability, T/C (compound 10 µM): 90.5% [middle of 4 runs]
- IC50 (curve of compound): > 10 µM

Compound: CC1(C)CCC(Nc2ncc(C(F)(F)F)c(-c3c[nH]c4c(P(C)(C)=O)c(C#N)ccc34)n2)CN1 (stereo not drawn) + COc1c(OCCCN2CCOCC2)ccc2c3n(c(=NC(=O)c4cnc(N)nc4)nc12)CCN3
- IC50 [43]: < 0.0316 µM
- IC50 [44]: < 0.0316 µM
- IC50 [1]: < 0.0316 µM
- IC50 [2]: < 0.0316 µM
- IC50 [3]: < 0.0316 µM
- IC50 [4]: < 0.0316 µM
- viability, T/C [45]: 12.1%
- viability, T/C [46]: 11.7%
- viability, T/C [47]: 11.3%
- viability, T/C [48]: 12.8%
- viability, T/C [49]: 15.3%
- viability, T/C [50]: 3.31%
- viability, T/C [51]: 13.1%
- viability, T/C [52]: 12.1%
- viability, T/C [53]: 13%
- viability, T/C [54]: 12.4%
- viability, T/C [55]: 15.3%
- viability, T/C [56]: 1.45%
- viability, T/C [7]: 9.55%
- viability, T/C [8]: 11.7%
- viability, T/C [9]: 11.4%
- viability, T/C [10]: 14.8%
- viability, T/C [11]: 13.4%
- viability, T/C [12]: 1.98%
- viability, T/C [13]: 9.95%
- viability, T/C [14]: 8.41%
- viability, T/C [15]: 9.5%
- viability, T/C [16]: 9.61%
- viability, T/C [17]: 8.75%
- viability, T/C [18]: 0.91%
- viability, T/C [19]: 3.76%
- viability, T/C [20]: 3.49%
- viability, T/C [21]: 5.12%
- viability, T/C [22]: 4.26%
- viability, T/C [23]: 4.19%
- viability, T/C [24]: 0.4%
- viability, T/C [25]: 1.25%
- viability, T/C [26]: 1.35%
- viability, T/C [27]: 1.58%
- viability, T/C [28]: 1.61%
- viability, T/C [29]: 1.3%
- viability, T/C [30]: 0.43%

Compound: CC1(C)CCC(CN2CCN(c3ccc(C(=O)NS(=O)(=O)c4ccc(NCC5CCOCC5)c([N+](=O)[O-])c4)c(Oc4cnc5[nH]ccc5c4)c3)CC2)=C(c2ccc(Cl)cc2)C1
- viability, T/C (compound 0.0316 µM): 104% [middle of 4 runs]
- viability, T/C (compound 0.316 µM): 102% [middle of 4 runs]
- viability, T/C (compound 1 µM): 82.2% [middle of 4 runs]
- viability, T/C (compound 3.16 µM): 72.4% [middle of 4 runs]

Compound: CC1(C)CCC(Nc2ncc(C(F)(F)F)c(-c3c[nH]c4c(P(C)(C)=O)c(C#N)ccc34)n2)CN1 (stereo not drawn) + CC(Nc1ncnc2nc[nH]c12)c1cc2cccc(Cl)c2c(=O)n1-c1ccccc1
- IC50 [1]: < 0.0316 µM
- IC50 [2]: < 0.0316 µM
- IC50 [3]: < 0.0316 µM
- IC50 [4]: < 0.0316 µM
- IC50 [5]: < 0.0316 µM
- IC50 [6]: < 0.0316 µM
- viability, T/C [7]: 13.4%
- viability, T/C [8]: 10.9%
- viability, T/C [9]: 15.2%
- viability, T/C [10]: 12.4%
- viability, T/C [11]: 13.8%
- viability, T/C [12]: 1.65%
- viability, T/C [13]: 12.6%
- viability, T/C [14]: 13.2%
- viability, T/C [15]: 15.7%
- viability, T/C [16]: 16%
- viability, T/C [17]: 16.1%
- viability, T/C [18]: 2.44%
- viability, T/C [19]: 11.3%
- viability, T/C [20]: 13.9%
- viability, T/C [21]: 12.4%
- viability, T/C [22]: 14.8%
- viability, T/C [23]: 14%
- viability, T/C [24]: 2.31%
- viability, T/C [25]: 12.3%
- viability, T/C [26]: 13.2%
- viability, T/C [27]: 14%
- viability, T/C [28]: 14.3%
- viability, T/C [29]: 16.8%
- viability, T/C [30]: 1.85%
- viability, T/C [31]: 10.7%
- viability, T/C [32]: 13.8%
- viability, T/C [33]: 13.7%
- viability, T/C [34]: 15%
- viability, T/C [35]: 16%
- viability, T/C [36]: 1.2%
- viability, T/C [37]: 17%
- viability, T/C [38]: 16.9%
- viability, T/C [39]: 14.9%
- viability, T/C [40]: 21.3%
- viability, T/C [41]: 16.8%
- viability, T/C [42]: 0.91%

Second part, led by results:

- IC50 [1]: > 10 µM
- IC50 [2]: > 10 µM
- IC50 [3]: > 10 µM
- IC50 [4]: > 10 µM
- IC50 [5]: > 10 µM
- IC50 [6]: > 10 µM
Compound: C[C@@H](NC(=O)c1ncnc(N)c1Cl)c1ncc(C(=O)Nc2cc(C(F)(F)F)c(Cl)cn2)s1 + CC(Nc1ncnc2nc[nH]c12)c1cc2cccc(Cl)c2c(=O)n1-c1ccccc1
- viability, T/C [7]: 88.8%
- viability, T/C [8]: 84.2%
- viability, T/C [9]: 102%
- viability, T/C [10]: 85%
- viability, T/C [11]: 99.7%
- viability, T/C [12]: 75.5%
- viability, T/C [13]: 90.3%
- viability, T/C [14]: 104%
- viability, T/C [15]: 108%
- viability, T/C [16]: 89%
- viability, T/C [17]: 89.6%
- viability, T/C [18]: 59.4%
- viability, T/C [19]: 103%
- viability, T/C [20]: 104%
- viability, T/C [21]: 92.5%
- viability, T/C [22]: 98.8%
- viability, T/C [23]: 87.9%
- viability, T/C [24]: 62.1%
- viability, T/C [25]: 100%
- viability, T/C [26]: 94.5%
- viability, T/C [27]: 97.4%
- viability, T/C [28]: 96.5%
- viability, T/C [29]: 102%
- viability, T/C [30]: 71%
- viability, T/C [31]: 90.6%
- viability, T/C [32]: 89.3%
- viability, T/C [33]: 105%
- viability, T/C [34]: 99%
- viability, T/C [35]: 92.8%
- viability, T/C [36]: 68.9%
- viability, T/C [37]: 82.7%
- viability, T/C [38]: 86%
- viability, T/C [39]: 84.8%
- viability, T/C [40]: 93.1%
- viability, T/C [41]: 87.7%
- viability, T/C [42]: 70.3%

- IC50 [43]: > 10 µM
- IC50 [44]: > 10 µM
- IC50 [1]: > 10 µM
- IC50 [2]: > 10 µM
- IC50 [3]: < 0.0316 µM
- IC50 [4]: < 0.0316 µM
Compound: C[C@@H](NC(=O)c1ncnc(N)c1Cl)c1ncc(C(=O)Nc2cc(C(F)(F)F)c(Cl)cn2)s1 + COc1c(OCCCN2CCOCC2)ccc2c3n(c(=NC(=O)c4cnc(N)nc4)nc12)CCN3
- viability, T/C [45]: 91.8%
- viability, T/C [46]: 112%
- viability, T/C [47]: 96.9%
- viability, T/C [48]: 109%
- viability, T/C [49]: 98.5%
- viability, T/C [50]: 97%
- viability, T/C [51]: 105%
- viability, T/C [52]: 101%
- viability, T/C [53]: 96.5%
- viability, T/C [54]: 119%
- viability, T/C [55]: 102%
- viability, T/C [56]: 78.1%
- viability, T/C [7]: 76%
- viability, T/C [8]: 81.8%
- viability, T/C [9]: 86.5%
- viability, T/C [10]: 86.9%
- viability, T/C [11]: 84.2%
- viability, T/C [12]: 71.5%
- viability, T/C [13]: 58.2%
- viability, T/C [14]: 43.7%
- viability, T/C [15]: 55.6%
- viability, T/C [16]: 55%
- viability, T/C [17]: 55.1%
- viability, T/C [18]: 47.9%
- viability, T/C [19]: 11.2%
- viability, T/C [20]: 14.4%
- viability, T/C [21]: 13.4%
- viability, T/C [22]: 18%
- viability, T/C [23]: 24.4%
- viability, T/C [24]: 9.94%
- viability, T/C [25]: 2.2%
- viability, T/C [26]: 1.73%
- viability, T/C [27]: 1.92%
- viability, T/C [28]: 1.84%
- viability, T/C [29]: 2.33%
- viability, T/C [30]: 1.65%
